This passage reports IC50 results from publication PMC6935813, “Assessment of the Aromatase Inhibitory Activity of Ma-Huang-Tang (MHT) and Its Active Compounds” (Evidence-based Complementary and Alternative Medicine : eCAM, 2019).

pIC50: −log10 of the molar value.

For experiment [1], the target named is T1, aromatase (Homo sapiens, UniProt P11511).
T1 sequence (P11511 1-503): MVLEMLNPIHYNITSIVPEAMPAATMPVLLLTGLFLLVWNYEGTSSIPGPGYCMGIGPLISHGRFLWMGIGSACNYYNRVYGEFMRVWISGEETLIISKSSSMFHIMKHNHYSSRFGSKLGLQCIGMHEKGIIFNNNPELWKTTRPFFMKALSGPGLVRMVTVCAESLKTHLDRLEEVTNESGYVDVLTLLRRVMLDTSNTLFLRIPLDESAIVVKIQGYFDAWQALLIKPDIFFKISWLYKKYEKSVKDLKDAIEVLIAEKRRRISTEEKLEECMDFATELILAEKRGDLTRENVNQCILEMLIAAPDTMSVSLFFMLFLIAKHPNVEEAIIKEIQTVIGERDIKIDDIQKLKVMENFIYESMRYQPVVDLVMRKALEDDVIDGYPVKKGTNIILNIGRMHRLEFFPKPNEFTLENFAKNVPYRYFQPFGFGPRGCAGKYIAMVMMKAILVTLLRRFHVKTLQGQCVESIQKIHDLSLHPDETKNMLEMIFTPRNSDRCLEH
In words: Cell-free fluorescence-based aromatase inhibition assay (DBF hydrolysis). The note with it: DBF substrate. Set-up: purchased Corning (Woburn, MA, USA). The experiment is classed as biochemical.
Protocol: Supersomes human CYP19 was obtained from Corning (Woburn, MA, USA). Analytical-grade acetonitrile, methanol, and ultrapure water were purchased from J. T. Baker (Phillipsburg, NJ, USA). Trifluoroacetic acid was of analytical grade and was purchased from Sigma-Aldrich.
The inhibition of aromatase activity by MHT and each component was assessed by measuring the fluorescence intensity of fluorescein produced by the hydrolysis of DBF [20, 28]. […] A 100 μL mixture of aromatase and substrate (2 μM DBF, 40 pmol/mL aromatase, and 4 mg/mL albumin in 50 mM potassium phosphate, pH 7.4) was then added to the sample, and the resulting mixture was incubated for 30 min at 37°C in the dark. After the reaction, the sample was incubated with 150 μL of 2N NaOH for an additional 2 h at 37°C to remove impurities other than fluorescein. […] All experiments were performed three times at separate times.
The results are expressed as the means ± SEMs from multiple experiments. Paired Student's t-tests with Tukey's multiple comparison tests were performed to compare two groups using PRISM software (GraphPad, CA, USA). A p value <0.05 was considered to be statistically significant. Additionally, IC50 values were calculated by sigmoidal dose-response curve fitting (variable slope) using PRISM software.

The target in experiment [2] is T1, aromatase. Nature of the experiment: Cell-based aromatase assay: estrone ELISA in KGN cells given androstenedione. The note with it: estrone level by ELISA; maximum con. 5 mM; read-out: Aromatase inhibition IC50 in KGN cells. For orientation: In an ELISA, binding on a coated surface is turned into a signal by an enzyme label.
Protocol: The human granulosa-like tumor cell line KGN was obtained from RIKEN BioResource Center (Ibaraki, JPN). The cells were grown in Dulbecco's modified Eagle's medium/Ham's F-12 nutrient mix (DMEM/F-12, Welgen, Daejeon, KOR) supplemented with 5% (v/v) fetal bovine serum (FBS) and 0.5% antibiotics (100 U/mL penicillin and 100 μg/mL streptomycin, Gibco BRL, NY, USA) in a humidified atmosphere of 5% CO2 at 37°C. Prior to treatment with MHT and its components in all the experiments, the cells were cultured for 24 h by switching to phenol-red free DMEM/H-12 medium (Welgen, Daejeon, KOR) with 5% (v/v) charcoal-stripped FBS (HyClone, Logan, UT, USA), and the samples were treated under the same conditions.
Cells (4 × 10^4 cells/mL) were placed on a 96-well tissue culture plate and incubated in DMEM/F-12 medium with 5% charcoal-stripped FBS (HyClone, Logan, UT, USA) overnight. After the addition of MHT or its components, the cells were incubated for 24 h. […] The estrone concentration in each of the samples was measured at 450 nm using a Synergy/HTX multimode reader (Bio-Tek Instruments Inc., VT, USA) with an estrone ELISA kit (Abnova, CA, USA), and the cell viability was measured using a CCK-8 assay (Dojindo Laboratories, Tokyo, JPN).
Additionally, IC50 values were calculated by sigmoidal dose-response curve fitting (variable slope) using PRISM software.

With `O=C/C=C/c1ccccc1` [Cinnamaldehyde (4), cinnamaldehyde], at aromatase [1] (maximum con. 10 mM), the pIC50 – broadly, the negative decadic logarithm of the IC50, by convention in mol/L – was under 2.00. Still for that read-out and setting: the same measure for `O=C(O)/C=C/c1ccccc1` [Cinnamic acid (3), cinnamic acid]: under 2.00; for `O=c1ccc2ccccc2o1` [Coumarin (2), coumarin]: under 2.00. With `CN[C@@H](C)[C@H](O)c1ccccc1` [Ephedrine (1), ephedrine], on aromatase [1] (maximum con. 10 mM), the pIC50 is under 2.00. Consider `CC1(C)[C@@H](O[C@H]2O[C@H](C(=O)O)[C@@H](O)[C@H](O)[C@H]2O[C@@H]2O[C@H](C(=O)O)[C@@H](O)[C@H](O)[C@H]2O)CC[C@]2(C)[C@H]3C(=O)C=C4[C@@H]5C[C@@](C)(C(=O)O)CC[C@]5(C)CC[C@@]4(C)[C@]3(C)CC[C@@H]12` [Glycyrrhizin (8), glycyrrhizin], for which the pIC50 at aromatase [1] (maximum con. 10 mM) is under 2.00.

`O=C1CC(c2ccc(O)cc2)Oc2cc(O)ccc21` (centres unmarked) [Liquiritigenin (7), liquiritigenin]: the pIC50 against aromatase [1] (maximum con. 10 mM) is 2.79; at aromatase [2] it was 2.85.

Take `O=C1C[C@@H](c2ccc(O[C@@H]3O[C@H](CO)[C@@H](O)[C@H](O)[C@H]3O)cc2)Oc2cc(O)ccc21` [Liquiritin (5), liquiritin]: the pIC50 on aromatase [1] (human CYP19 Supersomes) was 3.28.
